Measured values taken from patent US20220362249A1, “METHODS FOR TREATING […]” (PTC Therapeutics MP, Inc., priority 2019, published 2022).
Where two headings read alike, the source gives them in different places.

Assays:
Assay type in all cases: in vivo, human
[1] = Pharmacokinetic analysis of multiple doses of sepiapterin (once daily for 7 days, fed subjects)
Description: Methods: Three cohorts of eight fed subjects each were randomized to receive once-daily sepiapterin or placebo for 7 days in a 6:2 ratio. A sentinel dose strategy was also used for administration of the highest sepiapterin dose.

[2] = Food effect on administration of sepiapterin: plasma sepiapterin and BH4 concentrations, fasted vs fed; conditions: sepiapterin 10 mg/kg oral; for concentration at 0 h / concentration at 0.5 h / concentration at 1 h / concentration at 2 h / concentration at 4 h / concentration at 8 h / concentration at 12 h / concentration at 24 h: human, oral, 10 mg/kg; for concentration at 0 h: 0 h (predose)
Method: Method: Subjects received 2 oral doses of sepiapterin (10 mg/kg) separated by 1 week in a fasted and fed state. Subjects were fed a standard high-fat (approximately 50 percent of total caloric content of the meal) and high-calorie (approximately 800 to 1000 calories) meal starting 30 minutes prior to receiving their second oral dose of sepiapterin on Day 8.
Sampling for PK analysis occurred predose on Days 1 and 8 (within 30 minutes before dosing) and 0.5 hr, 1 hr, 2 hr, 4 hr, 8 hr, 12 hr, and 24 hr after the doses on Days 1 and 8. The blood concentrations of sepiapterin and BH4 were analyzed by MNG Labs.

[3] = Comparison of adverse events in fed and fasted subjects; conditions: single dose 10 mg/kg, twelve subjects
Method: Method: Twelve subjects were given a single dose (10 mg/kg) of sepiapterin under fasting conditions and then 7 days later under fed conditions. Standard definitions of adverse events (AE) were used. All-cause AE were those that occurred at any time; treatment-emergent adverse events (TEAE) were those that occurred at or after the time of administration of study treatment. TEAEs related to study drug were based on the opinion of the investigator. Serious AE were defined as life threatening or caused death, hospitalization or prolongation of existing hospitalization, or were a persistent or significant disability/incapacity or a substantial disruption of the ability to conduct normal life functions, or a congenital anomaly/birth defect.

[4] = plasma, fasted, read-out: Concentration in Plasma, Maximum
[5] = plasma, fasted, read-out: Concentration in Plasma, Mean
[6] = plasma, fasted, read-out: Concentration in Plasma, Median
[7] = plasma, fasted, read-out: Concentration in Plasma, Minimum
[8] = plasma, fed (high-fat meal), read-out: Concentration in Plasma, Maximum
[9] = plasma, fed (high-fat meal), read-out: Concentration in Plasma, Mean
[10] = plasma, fed (high-fat meal), read-out: Concentration in Plasma, Median
[11] = plasma, fed (high-fat meal), read-out: Concentration in Plasma, Minimum

Q: Which Cmax ([1]; Day 1, sepiapterin 20 mg/kg once daily, fed) does the source give for `C[C@H](O)C(=O)C1=Nc2c(nc(N)[nH]c2=O)NC1` [sepiapterin, Sepiapterin] here?
A: Its Cmax is 1.2 ng/mL.

Q: And the AUC0-24 ([1]; Day 7, sepiapterin 60 mg/kg once daily, fed)?
A: Its AUC0-24 is 23 ng·h/mL.

Q: What about the “Drug accumulation after 1 and 7 days of treatment (in words)” value ([1]; once-daily sepiapterin for 7 days) of the same compound?
A: The value was “no drug accumulation”.

Q: What about the concentration at 0 h [2, 4] of the same compound?
A: Its concentration at 0 h is 0 nM.

Q: What about the concentration at 0 h [2, 5] of the same compound?
A: The concentration at 0 h was 0 nM.

Q: What about the concentration at 0 h [2, 6] of the same compound?
A: The concentration at 0 h was 0 nM.

Q: And the concentration at 0 h [2, 7]?
A: Its concentration at 0 h is 0 nM.

Q: What about the concentration at 0.5 h [2, 4] of the same compound?
A: Its concentration at 0.5 h is 7.23 nM.

Q: What about the concentration at 0.5 h [2, 5] of the same compound?
A: Its concentration at 0.5 h is 2.85 nM.

Q: And the concentration at 0.5 h [2, 6]?
A: The concentration at 0.5 h was 2.32 nM.

Q: What about the concentration at 0.5 h [2, 7] of the same compound?
A: The concentration at 0.5 h was 0 nM.

Q: And the concentration at 1 h [2, 4]?
A: Its concentration at 1 h is 10.2 nM.

Q: And the concentration at 1 h [2, 5]?
A: The concentration at 1 h was 5.43 nM.

Q: What about the concentration at 1 h [2, 6] of the same compound?
A: The concentration at 1 h was 4.82 nM.

Q: What about the concentration at 1 h [2, 7] of the same compound?
A: Its concentration at 1 h is 3.15 nM.

Q: What about the concentration at 2 h [2, 4] of the same compound?
A: The concentration at 2 h was 6.65 nM.

Q: What about the concentration at 2 h [2, 5] of the same compound?
A: Its concentration at 2 h is 4.63 nM.

Q: What about the concentration at 2 h [2, 6] of the same compound?
A: The concentration at 2 h was 4.71 nM.

Q: And the concentration at 2 h [2, 7]?
A: The concentration at 2 h was 2.52 nM.

Q: What about the concentration at 4 h [2, 4] of the same compound?
A: Its concentration at 4 h is 3.93 nM.

Q: And the concentration at 4 h [2, 5]?
A: The concentration at 4 h was 1.88 nM.

Q: And the concentration at 4 h [2, 6]?
A: Its concentration at 4 h is 2.37 nM.

Q: And the concentration at 4 h [2, 7]?
A: Its concentration at 4 h is 0 nM.

Q: What about the concentration at 8 h [2, 4] of the same compound?
A: Its concentration at 8 h is 0 nM.

Q: And the concentration at 8 h [2, 5]?
A: Its concentration at 8 h is 0 nM.

Q: And the concentration at 8 h [2, 6]?
A: The concentration at 8 h was 0 nM.

Q: What about the concentration at 8 h [2, 7] of the same compound?
A: The concentration at 8 h was 0 nM.

Q: What about the concentration at 12 h [2, 4] of the same compound?
A: Its concentration at 12 h is 0 nM.

Q: And the concentration at 12 h [2, 5]?
A: Its concentration at 12 h is 0 nM.

Q: What about the concentration at 12 h [2, 6] of the same compound?
A: Its concentration at 12 h is 0 nM.

Q: What about the concentration at 12 h [2, 7] of the same compound?
A: The concentration at 12 h was 0 nM.

Q: What about the concentration at 24 h [2, 4] of the same compound?
A: The concentration at 24 h was 0 nM.

Q: What about the concentration at 24 h [2, 5] of the same compound?
A: Its concentration at 24 h is 0 nM.

Q: What about the concentration at 24 h [2, 6] of the same compound?
A: Its concentration at 24 h is 0 nM.

Q: What about the concentration at 24 h [2, 7] of the same compound?
A: The concentration at 24 h was 0 nM.

Q: And the concentration at 0 h [2, 8]?
A: Its concentration at 0 h is 0 nM.

Q: What about the concentration at 0 h [2, 9] of the same compound?
A: Its concentration at 0 h is 0 nM.

Q: What about the concentration at 0 h [2, 10] of the same compound?
A: The concentration at 0 h was 0 nM.

Q: What about the concentration at 0 h [2, 11] of the same compound?
A: Its concentration at 0 h is 0 nM.

Q: And the concentration at 0.5 h [2, 8]?
A: Its concentration at 0.5 h is 3.22 nM.

Q: And the concentration at 0.5 h [2, 9]?
A: The concentration at 0.5 h was 0.63 nM.

Q: What about the concentration at 0.5 h [2, 10] of the same compound?
A: The concentration at 0.5 h was 0 nM.

Q: What about the concentration at 0.5 h [2, 11] of the same compound?
A: The concentration at 0.5 h was 0 nM.

Q: And the concentration at 1 h [2, 8]?
A: The concentration at 1 h was 4.57 nM.

Q: And the concentration at 1 h [2, 9]?
A: The concentration at 1 h was 2.38 nM.

Q: What about the concentration at 1 h [2, 10] of the same compound?
A: The concentration at 1 h was 2.42 nM.

Q: What about the concentration at 1 h [2, 11] of the same compound?
A: The concentration at 1 h was 0 nM.

Q: And the concentration at 2 h [2, 8]?
A: Its concentration at 2 h is 5.92 nM.

Q: What about the concentration at 2 h [2, 9] of the same compound?
A: The concentration at 2 h was 2.96 nM.

Q: And the concentration at 2 h [2, 10]?
A: Its concentration at 2 h is 2.91 nM.

Q: And the concentration at 2 h [2, 11]?
A: Its concentration at 2 h is 0 nM.

Q: And the concentration at 4 h [2, 8]?
A: Its concentration at 4 h is 5.56 nM.

Q: And the concentration at 4 h [2, 9]?
A: Its concentration at 4 h is 2.96 nM.

Q: And the concentration at 4 h [2, 10]?
A: Its concentration at 4 h is 2.5 nM.

Q: What about the concentration at 4 h [2, 11] of the same compound?
A: The concentration at 4 h was 0 nM.

Q: What about the concentration at 8 h [2, 8] of the same compound?
A: Its concentration at 8 h is 2.19 nM.

Q: What about the concentration at 8 h [2, 9] of the same compound?
A: Its concentration at 8 h is 0.18 nM.

Q: And the concentration at 8 h [2, 10]?
A: The concentration at 8 h was 0 nM.

Q: What about the concentration at 8 h [2, 11] of the same compound?
A: Its concentration at 8 h is 0 nM.

Q: And the concentration at 12 h [2, 8]?
A: Its concentration at 12 h is 0 nM.

Q: And the concentration at 12 h [2, 9]?
A: Its concentration at 12 h is 0 nM.

Q: And the concentration at 12 h [2, 10]?
A: Its concentration at 12 h is 0 nM.

Q: And the concentration at 12 h [2, 11]?
A: The concentration at 12 h was 0 nM.

Q: What about the concentration at 24 h [2, 8] of the same compound?
A: Its concentration at 24 h is 0 nM.

Q: What about the concentration at 24 h [2, 9] of the same compound?
A: Its concentration at 24 h is 0 nM.

Q: And the concentration at 24 h [2, 10]?
A: The concentration at 24 h was 0 nM.

Q: And the concentration at 24 h [2, 11]?
A: The concentration at 24 h was 0 nM.

Q: And the “Geometric mean ratio (fasted/fed, 90% CI) for AUClast” value ([2]; plasma)?
A: The value was 1.29 (0.84 to 2.00).

Q: What about the “Geometric mean ratio (fasted/fed, 90% CI) for Cmax” value ([2]; plasma) of the same compound?
A: Its value is 1.57 (1.21 to 2.0).

Q: And the “Cmax in the plasma, fed compared to fasted subjects (in words)” value [2]?
A: The value was “much lower”.

Q: What about the TEAE ([3]; Fasted) of the same compound?
A: Its TEAE is 4.

Q: What about the “TEAE related to study drug” value ([3]; Fasted) of the same compound?
A: The value was 1.

Q: And the “≥1 AE” value ([3]; Fasted)?
A: Its value is 5.

Q: What about the TEAE ([3]; Fed) of the same compound?
A: The TEAE was 1.

Q: What about the “TEAE related to study drug” value ([3]; Fed) of the same compound?
A: The value was 0.

Q: What about the “≥1 AE” value ([3]; Fed) of the same compound?
A: The value was 1.
